Data reported in US10213427B2 (Incyte Corporation, priority 2010, dated 2019).

These compounds were tested against FGFR3 enzyme (Millipore) (Homo sapiens (Human), UniProt P22607) (assay: FGFR3 Enzymatic Assay). Conditions: FRET peptide phosphorylation, 140 μM ATP.
Format: biochemical
Procedure: The inhibitor potency of compounds of the invention was measured in an enzyme assay that measures peptide phosphorylation using FRET measurements to detect product formation. Inhibitors were serially diluted in DMSO and a volume of 0.5 μL was transferred to the wells of a 384-well plate. A 10 μL volume of FGFR3 enzyme (Millipore) diluted in assay buffer (50 mM HEPES, 10 mM MgCl2, 1 mM EGTA, 0.01% Tween-20, 5 mM DTT, pH 7.5) was added to the plate and pre-incubated for 5-10 minutes. Appropriate controls (enzyme blank and enzyme with no inhibitor) were included on the plate. […] The plate was incubated at 25° C. for 1 hr. […] The plate was allowed to equilibrate for ˜1 hr before scanning the wells on a PheraStar plate reader.
GraphPad prism3 was used to analyze the data. The IC50 values were derived by fitting the data to the equation for a sigmoidal dose-response with a variable slope. Y=Bottom+(Top−Bottom)/(1+10^((Log IC50−X)*HillSlope)) where X is the logarithm of concentration and Y is the response.

Chain of FGFR3 enzyme (Millipore) (P22607 23-806): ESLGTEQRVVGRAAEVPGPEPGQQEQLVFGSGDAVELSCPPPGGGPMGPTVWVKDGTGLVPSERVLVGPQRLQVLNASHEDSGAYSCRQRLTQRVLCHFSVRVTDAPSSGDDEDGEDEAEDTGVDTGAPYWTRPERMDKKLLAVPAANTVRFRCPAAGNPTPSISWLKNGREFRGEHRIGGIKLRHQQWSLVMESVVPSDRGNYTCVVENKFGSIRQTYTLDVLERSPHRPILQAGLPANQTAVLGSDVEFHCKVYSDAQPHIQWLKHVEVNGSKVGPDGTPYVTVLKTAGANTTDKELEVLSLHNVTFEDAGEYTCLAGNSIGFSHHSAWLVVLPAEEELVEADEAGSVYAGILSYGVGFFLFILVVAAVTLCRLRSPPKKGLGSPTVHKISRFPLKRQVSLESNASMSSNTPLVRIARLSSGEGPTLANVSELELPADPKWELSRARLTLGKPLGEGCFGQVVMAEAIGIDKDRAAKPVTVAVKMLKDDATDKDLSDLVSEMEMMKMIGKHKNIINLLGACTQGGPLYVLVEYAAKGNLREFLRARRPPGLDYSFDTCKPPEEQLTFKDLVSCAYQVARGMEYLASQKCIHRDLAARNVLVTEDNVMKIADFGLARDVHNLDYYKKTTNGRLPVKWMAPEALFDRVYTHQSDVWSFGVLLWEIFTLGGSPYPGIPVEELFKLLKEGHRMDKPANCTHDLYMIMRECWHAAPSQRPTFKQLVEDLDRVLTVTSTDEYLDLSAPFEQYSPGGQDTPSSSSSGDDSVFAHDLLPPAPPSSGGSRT

IC50 [nM]	Structure (SMILES)
< 10	O=C(NCC(F)(F)F)Nc1cccc(-n2cnc3cc(-c4cccc(C(=O)NCc5cccnc5)c4)ccc32)c1 [Example 5, N-(Pyridin-3-ylmethyl)-3-{1-[3-({[(2,2,2-trifluoroethyl)amino]carbonyl}amino)phenyl]-1H-benzimidazol-5-yl}benzamide]
< 10	Cn1ccnc1CNC(=O)c1cccc(-c2ccc3c(c2)ncn3-c2cccc(NC(=O)NCC(F)(F)F)c2)c1 [Example 6, N-[(1-Methyl-1H-imidazol-2-yl)methyl]-3-{1-[3-({[(2,2,2-trifluoroethyl)amino]carbonyl}amino)phenyl]-1H-benzimidazol-5-yl}benzamide]
< 10	O=C(NCC(F)(F)F)Nc1cccc(-n2cnc3cc(-c4ccc(C(=O)NCC5CC5)cc4)ccc32)c1 [Example 7, N-(Cyclopropylmethyl)-4-{1-[3-({[(2,2,2-trifluoroethyl)amino]carbonyl}amino)phenyl]-1H-benzimidazol-5-yl}benzamide]
< 10	O=C(NCC(F)(F)F)Nc1cccc(-n2cnc3cc(-c4ccc(C(=O)NCC5CCCO5)cc4)ccc32)c1 (centres unmarked) [Example 8, N-(Tetrahydrofuran-2-ylmethyl)-4-{1-[3-({[(2,2,2-trifluoroethyl)amino]carbonyl}amino)phenyl]-1H-benzimidazol-5-yl}benzamide]
< 10	O=C(NCC(F)(F)F)Nc1cccc(-n2cnc3cc(-c4ccc(C(=O)NCC5CCCCC5O)cc4)ccc32)c1 (centres unmarked) [Example 9]
< 10	CN1CCC(CNC(=O)c2ccc(-c3ccc4c(c3)ncn4-c3cccc(NC(=O)NCC(F)(F)F)c3)cc2)CC1 [Example 10, N-[(1-Methylpiperidin-4-yl)methyl]-4-{1-[3-({[(2,2,2-trifluoroethyl)amino]carbonyl}amino)phenyl]-1H-benzimidazol-5-yl}benzamide]
< 10	O=C(NCC(F)(F)F)Nc1cccc(-n2cnc3cc(-c4ccc(C(=O)NCCN5CCOCC5)cc4)ccc32)c1 [Example 11, N-(2-Morpholin-4-ylethyl)-4-{1-[3-({[(2,2,2-trifluoroethyl)amino]carbonyl}amino)phenyl]-1H-benzimidazol-5-yl}benzamide]
< 10	O=C(NCC(F)(F)F)Nc1cccc(-n2cnc3cc(-c4ccc(C(=O)NCc5cccnc5)cc4)ccc32)c1 [Example 12, N-(Pyridin-3-ylmethyl)-4-{1-[3-({[(2,2,2-trifluoroethyl)amino]carbonyl}amino)phenyl]-1H-benzimidazol-5-yl}benzamide]
< 10	Cn1ccnc1CNC(=O)c1ccc(-c2ccc3c(c2)ncn3-c2cccc(NC(=O)NCC(F)(F)F)c2)cc1 [Example 13, N-[(1-Methyl-1H-imidazol-2-yl)methyl]-4-{1-[3-({[(2,2,2-trifluoroethyl)amino]carbonyl}amino)phenyl]-1H-benzimidazol-5-yl}benzamide]
< 10	CNC(=O)C(C)c1ccc(-c2ccc3c(c2)ncn3-c2cccc(NC(=O)NCC(F)(F)F)c2)cc1 (centres unmarked) [Example 14, N-Methyl-2-(4-{1-[3-({[(2,2,2-trifluoroethyl)amino]carbonyl}amino)phenyl]-1H-benzimidazol-5-yl}phenyl)propanamide]
< 10	CC(C(=O)N(C)C)c1ccc(-c2ccc3c(c2)ncn3-c2cccc(NC(=O)NCC(F)(F)F)c2)cc1 (centres unmarked) [Example 15, N,N-Dimethyl-2-(4-{1-[3-({[(2,2,2-trifluoroethyl)amino]carbonyl}amino)phenyl]-1H-benzimidazol-5-yl}phenyl)propanamide]
< 10	CC(C(=O)NCC1CC1)c1ccc(-c2ccc3c(c2)ncn3-c2cccc(NC(=O)NCC(F)(F)F)c2)cc1 (centres unmarked) [Example 16, N-(Cyclopropylmethyl)-2-(4-{{1-[3-(([(2,2,2-trifluoroethyl)amino]carbonyl)}amino)phenyl]-1H-benzimidazol-5-yl}phenyl)propanamide]
< 10	CC(C(=O)NCC1CCCO1)c1ccc(-c2ccc3c(c2)ncn3-c2cccc(NC(=O)NCC(F)(F)F)c2)cc1 (centres unmarked) [Example 18, N-(Tetrahydrofuran-2-ylmethyl)-2-(4-{1-[3-({[(2,2,2-trifluoroethyl)amino]carbonyl}amino)phenyl]-1H-benzimidazol-5-yl}phenyl)propanamide]
< 10	CC(C(=O)NCc1nccn1C)c1ccc(-c2ccc3c(c2)ncn3-c2cccc(NC(=O)NCC(F)(F)F)c2)cc1 (centres unmarked) [Example 20, N-[(1-Methyl-1H-imidazol-2-yl)methyl]-2-(4-{1-[3-({[(2,2,2-trifluoroethyl)amino]carbonyl}amino)phenyl]-1H-benzimidazol-5-yl}phenyl)propanamide]

Second part, the compound before the results:

Structure (SMILES)	IC50 [nM]
O=C(NCC(F)(F)F)Nc1cccc(-n2cnc3cc(-c4cccc(C(=O)NCC5CC5)c4)ccc32)c1 [Example 1]	< 10
O=C(NCC(F)(F)F)Nc1cccc(-n2cnc3cc(-c4cccc(C(=O)NCC5CCCO5)c4)ccc32)c1 (centres unmarked) [Example 2, N-(Tetrahydrofuran-2-ylmethyl)-3-{1-[3-({[(2,2,2-trifluoroethyl)amino]carbonyl}amino)phenyl]-1H-benzimidazol-5-yl}benzamide]	< 10
CN1CCC(CNC(=O)c2cccc(-c3ccc4c(c3)ncn4-c3cccc(NC(=O)NCC(F)(F)F)c3)c2)CC1 [Example 3, N-[(1-Methylpiperidin-4-yl)methyl]-3-{1-[3-({[(2,2,2-trifluoroethyl)amino]carbonyl}amino)phenyl]-1H-benzimidazol-5-yl}benzamide]	< 10
O=C(NCC(F)(F)F)Nc1cccc(-n2cnc3cc(-c4cccc(C(=O)NCCN5CCOCC5)c4)ccc32)c1 [Example 4, N-(2-Morpholin-4-ylethyl)-3-{1-[3-({[(2,2,2-trifluoroethyl)amino]carbonyl}amino)phenyl]-1H-benzimidazol-5-yl}benzamide]	< 10
CC(C(=O)N1CCCC1)c1ccc(-c2ccc3c(c2)ncn3-c2cccc(NC(=O)NCC(F)(F)F)c2)cc1 (centres unmarked) [Example 17, N-(3-{5-[4-(1-Methyl-2-oxo-2-pyrrolidin-1-ylethyl)phenyl]-1H-benzimidazol-1-yl}phenyl)-N′-(2,2,2-trifluoroethyl)urea]	< 10
CC(C(=O)N1CCC(C#N)C1)c1ccc(-c2ccc3c(c2)ncn3-c2cccc(NC(=O)NCC(F)(F)F)c2)cc1 (centres unmarked) [Example 19, N-[3-(5-{4-[2-(3-Cyanopyrrolidin-1-yl)-1-methyl-2-oxoethyl]phenyl}-1H-benzimidazol-1-yl)phenyl]-N′-(2,2,2-trifluoroethyl)urea]	< 10
O=C(NCC(F)(F)F)Nc1cccc(-n2cnc3cc(-c4cnn(C5CCN(CC6CC6)CC5)c4)ccc32)c1 [Example 21, N-[3-(5-{1-[1-(Cyclopropylmethyl)piperidin-4-yl]-1H-pyrazol-4-yl}-1H-benzimidazol-1-yl)phenyl]-N′-(2,2,2-trifluoroethyl)urea]	< 10
N#CCC(n1cc(-c2ccc3c(c2)ncn3-c2cccc(NC(=O)NCC(F)(F)F)c2)cn1)C(F)(F)F (centres unmarked) [Example 22, N-[3-(5-{1-[1-(Cyanomethyl)-2,2,2-trifluoroethyl]-1H-pyrazol-4-yl}-1H-benzimidazol-1-yl)phenyl]-N′-(2,2,2-trifluoroethyl)urea]	< 10
Cn1cc(C(=O)N2CCC(n3cc(-c4ccc5c(c4)ncn5-c4cccc(NC(=O)NCC(F)(F)F)c4)cn3)CC2)cn1 [Example 23, N-{3-[5-(1-{1-[(1-Methyl-1H-pyrazol-4-yl)carbonyl]piperidin-4-yl}-1H-pyrazol-4-yl)-1H-benzimidazol-1-yl]phenyl}-N′-(2,2,2-trifluoroethyl)urea]	< 10
Cn1ccc(S(=O)(=O)N2CCC(n3cc(-c4ccc5c(c4)ncn5-c4cccc(NC(=O)NCC(F)(F)F)c4)cn3)CC2)n1 [Example 24, N-{3-[5-(1-{1-[(1-Methyl-1H-pyrazol-3-yl)sulfonyl]piperidin-4-yl}-1H-pyrazol-4-yl)-1H-benzimidazol-1-yl]phenyl}-N′-(2,2,2-trifluoroethyl)urea]	< 10
O=C(NCC(F)(F)F)Nc1cccc(-n2cnc3cc(-c4cnn(C5CCN(C(=O)Nc6cccnc6)CC5)c4)ccc32)c1 [Example 25]	< 10
O=C(NCC(F)(F)F)Nc1cccc(-n2cnc3cc(-c4cnn(C5CCN(C(=O)N6CCCC6)CC5)c4)ccc32)c1 [Example 26, N-[3-(5-{t-[1-(Pyrrolidin-1-ylcarbonyl)piperidin-4-yl]-1H-pyrazol-4-yl}-1H-benzimidazol-1-yl)phenyl]-N′-(2,2,2-trifluoroethyl)urea]	< 10
O=C(NCC(F)(F)F)Nc1cccc(-n2cnc3cc(-c4cnn(C5CCN(C(=O)CC6CC6)CC5)c4)ccc32)c1 [Example 27, N-[3-(5-{1-[1-(Cyclopropylacetyl)piperidin-4-yl]-1H-pyrazol-4-yl}-1H-benzimidazol-1-yl)phenyl]-N′-(2,2,2-trifluoroethyl)urea]	< 10
N#CCC(=O)N1CCC(n2cc(-c3ccc4c(c3)ncn4-c3cccc(NC(=O)NCC(F)(F)F)c3)cn2)CC1 [Example 28, N-[3-(5-{1-[1-(Cyanoacetyl)piperidin-4-yl]-1H-pyrazol-4-yl}-1H-benzimidazol-1-yl)phenyl]-N′-(2,2,2-trifluoroethyl)urea]	< 10
O=C(NCC(F)(F)F)Nc1cccc(-n2cnc3cc(-c4cnn(C5CCN(C(=O)C6CCCO6)CC5)c4)ccc32)c1 (centres unmarked) [Example 29, N-[3-(5-{1-[1-(Tetrahydrofuran-2-ylcarbonyl)piperidin-4-yl]-1H-pyrazol-4-yl}-1H-benzimidazol-1-yl)phenyl]-N′-(2,2,2-trifluoroethyl)urea]	< 10
